# According to patent US20060106078A1, “Prostamide receptor antagonists” (Allergan, Inc., priority 2003, published 2006):
# Assays:
# Assay type in all cases: cell-based
# [1] = tested on: cat iris sphincter (PGF2α response); experiment: Cat iris sphincter contraction: effect on PGF2α response; settings: isolated cat iris sphincter, contractile response relative to 1×10^−7 M PGF2α, 30 min antagonist incubation; FIG. 1, FIG. 2
# Method: (§1) The compounds of Examples 1 and 2 were tested for prostamide antagonist activity as follows:
# (§2) The smooth muscle tension of isolated tissue preparations was measured isometrically with force displacement transducers (Grass FT-03) and recorded on a Grass polygraph (Model 7G). The organ baths contained Krebs solution maintained at 37° C. and gassed with 95% O2: 5% CO2 to give a pH of 7.4. The Krebs solution had the following composition (mM): NaCl, 118.0; KCl, 4.7; KH2PO4, 1.2; CaCl2, 1.9; MgSO4, 1.18; NaHCO3, 25.0; glucose, 11.7; indomethacin, 0.001.
# (§3) Adult domestic cats were sacrificed by intravenous overdose of sodium pentobarbitol (Anthony, Arcadia, Calif., USA). The eyes were enucleated immediately and placed on ice. The iris sphincter from each eye was dissected to provide two strips ˜3 mm wide and 15-20 mm long. The sphincter muscle was mounted vertically under 50 mg tension in a jacketed 10 ml organ bath. A 60 min. equilibration period was allowed before commencing each experiment. The response to 1×10^−7 M PGF2α was determined at the beginning of each experiment as a reference. After complete washout, and return to baseline tension, tissues were allowed to re-equilibrate for 30 min. Antagonist or vehicle were then added. […] Activity of test compounds was determined as contractile responses and expressed relative to the reference standard 1×10^−7 M PGF2α.
# [2] = tested on: cat iris sphincter (prostamide F2α response); experiment: Cat iris sphincter contraction: antagonism of prostamide F2α response; settings: isolated cat iris sphincter, contractile response relative to 1×10^−7 M PGF2α, 30 min antagonist incubation; FIG. 1, FIG. 2
# Method: as §1, §2, §3
# [3] = tested on: cat iris sphincter (prostamide D2 response); experiment: Cat iris sphincter contraction: antagonism of prostamide D2 response; settings: isolated cat iris sphincter, contractile response relative to 1×10^−7 M PGF2α, 30 min antagonist incubation; FIG. 3
# Method: as §1, §2, §3
# [4] = tested on: cat iris sphincter (PGD2 response); experiment: Cat iris sphincter contraction: effect on PGD2 response; settings: isolated cat iris sphincter, contractile response relative to 1×10^−7 M PGF2α, 30 min antagonist incubation; FIG. 3
# Method: as §1, §2, §3
# [5] = tested on: cat iris sphincter (prostamide E2 response); experiment: Cat iris sphincter contraction: antagonism of prostamide E2 response; settings: isolated cat iris sphincter, contractile response relative to 1×10^−7 M PGF2α, 30 min antagonist incubation; FIG. 4
# Method: as §1, §2, §3
# [6] = tested on: cat iris sphincter (PGE2 response); experiment: Cat iris sphincter contraction: effect on PGE2 response; settings: isolated cat iris sphincter, contractile response relative to 1×10^−7 M PGF2α, 30 min antagonist incubation; FIG. 4
# Method: as §1, §2, §3
Compound,effect on response curve of PGF2α [1],prostamide F2α antagonist activity (effect on response curve of prostamide F2α) [2],prostamide D2 antagonist activity (effect on response curve of prostamide D2) [3],effect on response curve of PGD2 [4],prostamide E2 antagonist activity (effect on response curve of prostamide E2) [5],effect on response curve of PGE2 [6]
"O=C(CCc1ccc(F)cc1CC1C2CCC(O2)C1c1nc(C(=O)NCCCCC2CCCCC2)co1)NCCO (centres unmarked) [Example 2, 2-(3-{5-Fluoro-2-[2-(2-hydroxy-ethycarbamoyl)-ethyl]-benzyl}-7-oxa-bicyclo[2.2.1]hept-2-yl)-oxazole-4-carboxylic acid (4-cyclohexyl-butyl)-amide]",does not effect the response curve,displaces the response curve,,,,
"CCNC(=O)CCc1ccc(F)cc1CC1C2CCC(O2)C1c1nc(C(=O)NCCCCC2CCCCC2)co1 (centres unmarked) [Example 1, 2-{3-[2-(2-Ethylcarbamoyl-ethyl)-5-fluoro-benzyl]-7-oxa-bicyclo[2.2.1]hept-2-yl}-oxazole-4-carboxylic acid (4-cyclohexyl-butyl)-amide]",does not effect the response curve,displaces the response curve,displaces the response curve,does not effect the response curve,displaces the response curve,does not effect the response curve
